Measured values from PubChem BioAssay (NCI).
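In this assay, cells in 96-well plates receive the compound at five concentrations for 48 hours. Endpoints are linearly interpolated between the surrounding concentrations. Here, GI50 denotes the concentration required for 50% inhibition of growth. TGI is the concentration that stops growth completely.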

Columns and labels:
Assay in all cases: NCI-60 cell line screen, 48 h
[1] = tested on: 786-0 renal
[2] = tested on: A498 renal
[3] = tested on: A549 NSCLC
[4] = tested on: ACHN renal
[5] = tested on: BT-549 breast
[6] = tested on: CAKI-1 renal
[7] = tested on: CCRF-CEM leukemia
[8] = tested on: COLO 205 colon
[9] = tested on: DU-145 prostate
[10] = tested on: EKVX NSCLC
[11] = tested on: HCC-2998 colon
[12] = tested on: HCT-116 colon
[13] = tested on: HCT-15 colon
[14] = tested on: HL-60(TB) leukemia
[15] = tested on: HOP-62 NSCLC
[16] = tested on: HOP-92 NSCLC
[17] = tested on: HS 578T breast
[18] = tested on: HT29 colon
[19] = tested on: IGROV1 ovarian
[20] = tested on: K-562 leukemia
[21] = tested on: KM12 colon
[22] = tested on: LOX IMVI melanoma
[23] = tested on: M14 melanoma
[24] = tested on: MALME-3M melanoma
[25] = tested on: MCF7 breast
[26] = tested on: MDA-MB-231 breast
[27] = tested on: MDA-MB-435
[28] = tested on: MOLT-4 leukemia
[29] = tested on: NCI-H226 lung
[30] = tested on: NCI-H23 lung
[31] = tested on: NCI-H460 lung
[32] = tested on: NCI-H522 lung
[33] = tested on: NCI/ADR-RES ovarian
[34] = tested on: OVCAR-3 ovarian
[35] = tested on: OVCAR-4 ovarian
[36] = tested on: OVCAR-5 ovarian
[37] = tested on: OVCAR-8 ovarian
[38] = tested on: PC-3 prostate
[39] = tested on: RXF 393 renal
[40] = tested on: SF-268 CNS
[41] = tested on: SF-295 CNS
[42] = tested on: SF-539 CNS
[43] = tested on: SK-MEL-2 melanoma
[44] = tested on: SK-MEL-28 melanoma
[45] = tested on: SK-MEL-5 melanoma
[46] = tested on: SK-OV-3 ovarian
[47] = tested on: SN12C renal
[48] = tested on: SNB-19 CNS
[49] = tested on: SNB-75 CNS
[50] = tested on: SW-620 colon
[51] = tested on: T-47D breast
[52] = tested on: TK-10 renal
[53] = tested on: U251 CNS
[54] = tested on: UACC-257 melanoma
[55] = tested on: UACC-62 melanoma
[56] = tested on: UO-31 renal

With `CC(C)(C)n1cc(-c2ccnc(NCCCNS(=O)(=O)c3ccc(Br)cc3)c2)c(-c2cccc(O)c2)n1` the GI50 [1] was 1.66 µM, the TGI [1] was 3.16 µM and the GI50 [2] was 1.33 µM. For the same compound, the TGI [2] was 3.47 µM, the GI50 [3] was 2.11 µM and the TGI [3] was 5.39 µM. For the same compound, the GI50 [4] was 1.99 µM, the TGI [4] was 3.89 µM and the GI50 [5] was 1.5 µM. The TGI [5] was 2.98 µM, the GI50 [6] was 2.16 µM and the TGI [6] was 5.06 µM. For the same compound, the GI50 [7] was 2.26 µM, the TGI [7] was greater than 100 µM and the GI50 [8] was 1.85 µM. The TGI [8] was 3.79 µM, the GI50 [9] was 2.1 µM and the TGI [9] was 4.23 µM. For the same compound, the GI50 [10] was 1.95 µM, the TGI [10] was 4.58 µM and the GI50 [11] was 1.92 µM. It also gave a TGI [11] of 3.48 µM, a GI50 [12] of 1.31 µM and a TGI [12] of 2.6 µM. It also gave a GI50 [13] of 1.48 µM, a TGI [13] of 3.17 µM and a GI50 [14] of 2.72 µM. For the same compound, the TGI [14] was 7.49 µM, the GI50 [15] was 2.05 µM and the TGI [15] was 4.2 µM. It also gave a GI50 [16] of 1.56 µM, a TGI [16] of 3.43 µM and a GI50 [17] of 2.24 µM. The TGI [17] was 5.53 µM, the GI50 [18] was 1.42 µM and the TGI [18] was 3.79 µM. The GI50 [19] was 1.91 µM, the TGI [19] was 3.93 µM and the GI50 [20] was 2.02 µM. The TGI [20] was greater than 100 µM, the GI50 [21] was 2.11 µM and the TGI [21] was 4.37 µM. For the same compound, the GI50 [22] was 1.77 µM, the TGI [22] was 3.2 µM and the GI50 [23] was 1.78 µM. It also gave a TGI [23] of 3.29 µM, a GI50 [24] of 1.66 µM and a TGI [24] of 3.24 µM. It also gave a GI50 [25] of 1.88 µM, a TGI [25] of 3.98 µM and a GI50 [26] of 1.74 µM. It also gave a TGI [26] of 3.39 µM, a GI50 [27] of 1.82 µM and a TGI [27] of 3.29 µM. It also gave a GI50 [28] of 2.3 µM, a TGI [28] of 6.74 µM and a GI50 [29] of 2.31 µM. The TGI [29] was 5.59 µM, the GI50 [30] was 1.83 µM and the TGI [30] was 3.72 µM. For the same compound, the GI50 [31] was 1.99 µM, the TGI [31] was 3.99 µM and the GI50 [32] was 2.13 µM. It also gave a TGI [32] of 4.55 µM, a GI50 [33] of 2.21 µM and a TGI [33] of 5.03 µM. It also gave a GI50 [34] of 2.15 µM, a TGI [34] of 4.15 µM and a GI50 [35] of 1.91 µM. It also gave a TGI [35] of 3.91 µM, a GI50 [36] of 1.87 µM and a TGI [36] of 3.5 µM. It also gave a GI50 [37] of 2.43 µM, a TGI [37] of 6.88 µM and a GI50 [38] of 1.6 µM. The TGI [38] was 4.08 µM, the GI50 [39] was 1.46 µM and the TGI [39] was 2.87 µM. The GI50 [40] was 2.4 µM, the TGI [40] was 6.48 µM and the GI50 [41] was 1.71 µM. For the same compound, the TGI [41] was 3.25 µM, the GI50 [42] was 1.7 µM and the TGI [42] was 3.17 µM. For the same compound, the GI50 [43] was 2.13 µM, the TGI [43] was 4.31 µM and the GI50 [44] was 1.79 µM. The TGI [44] was 3.36 µM, the GI50 [45] was 1.52 µM and the TGI [45] was 2.87 µM. The GI50 [46] was 2.53 µM, the TGI [46] was 6.26 µM and the GI50 [47] was 1.61 µM. It also gave a TGI [47] of 3.01 µM, a GI50 [48] of 2.11 µM and a TGI [48] of 4.37 µM. It also gave a GI50 [49] of 1.76 µM, a TGI [49] of 4.11 µM and a GI50 [50] of 1.83 µM. The TGI [50] was 3.63 µM, the GI50 [51] was 2.48 µM and the TGI [51] was 8.12 µM. The GI50 [52] was 2.51 µM, the TGI [52] was 6.62 µM and the GI50 [53] was 1.65 µM. It also gave a TGI [53] of 3.66 µM, a GI50 [54] of 2.01 µM and a TGI [54] of 4.33 µM. It also gave a GI50 [55] of 1.59 µM, a TGI [55] of 3.06 µM and a GI50 [56] of 1.66 µM. It also gave a TGI [56] of 3.89 µM.
